Reference: patent US20210308028A1, “Compositions and Methods for Maintaining and Protecting Tissue Integrity and Barrier Function” (Colgate-Palmolive Company, priority 2020, published 2021)

Legend:
[1] = system: zonula occludens-1 and occludin in B11 gingival keratinocytes; test: Immunofluorescent staining of zonula occludens-1 and occludin; assay type: cell-based, human; conditions: no challenge; Example 3, FIGS. 8, 11, 14
Method: Gingival keratinocytes treated as described above for 12 h were immunostained for zonula occludens-1 and occludin, two tight junction proteins. Briefly, the cells were fixed in 50 mM phosphate-buffered saline (pH 7.2) (PBS) containing 4% paraformaldhehyde for 20 min, permeabilized with 0.1% Triton X-100 for 10 min, and blocked in 3% non-fat milk in 20 mM Tris-HCl (pH 8), 150 mM NaCl, and 0.5% Tween 20 for 40 min. […] After washing with PBS, the cells were then treated with ProLong® Diamond antifade (Life Technologies). The slides were sealed with nail polish and were kept in the dark at 4° C. The localization of tight junction proteins in B11 cells was visualized using an Olympus FSX100 fluorescence microscope and FSX-BSW imaging software (Olympus, Tokyo, Japan). Immunofluorescent staining of tight junction proteins is a qualitative assay.
The localization of the tight junction proteins in B11 cells was visualized using an Olympus FSX100 fluorescence microscope and FSX-BSW imaging software (Olympus, Tokyo, Japan).

[2] = system: zonula occludens-1 and occludin in gingival keratinocytes challenged with P. gingivalis; test: Immunofluorescence of tight junction proteins with P. gingivalis challenge; assay type: cell-based, human; conditions: Example 4, FIGS. 17, 20, 23
Method: Gingival keratinocytes treated as described above for 12 h were immunostained for zonula occludens-1 and occludin, two tight junction proteins. Briefly, the cells were fixed in 50 mM phosphate-buffered saline (pH 7.2) (PBS) containing 4% paraformaldhehyde for 20 min, permeabilized with 0.1% Triton X-100 for 10 min, and blocked in 3% non-fat milk in 20 mM Tris-HCl (pH 8), 150 mM NaCl, and 0.5% Tween 20 for 40 min. The cells were incubated with 2.5 μg/mL of either occludin antibody-Alexa Fluor® 488 conjugate or ZO-1 antibody-Alexa Fluor® 594 conjugate in blocking buffer overnight at 4° C. After washing with PBS, the cells were then treated with ProLong® Diamond antifade (Life Technologies). The slides were sealed with nail polish and were kept in the dark at 4° C. The localization of tight junction proteins in B11 cells was visualized using an Olympus FSX100 fluorescence microscope and FSX-BSW imaging software (Olympus, Tokyo, Japan). Immunofluorescent staining of tight junction proteins is a qualitative assay.
The gingival epithelium, a stratified squamous tissue that acts as an interface between the external environment and the underlying connective tissue, plays an active role in maintaining oral health. […] The capability of test compositions to protect oral tissue from perio-pathogenic bacteria caused tissue damage was assessed using the methodology set out in Example 2. […]

[3] = system: B11 immortalized human gingival keratinocyte cell line; test: Paracellular permeability to FITC-dextran (FD-4); assay type: cell-based; conditions: no challenge; over 48 h; FIGS. 7, 10, 13
Method: (§1) The ability of test composition samples to enhance epithelial barrier integrity was assessed by monitoring the paracellular transport of FITC-conjugated 4.4-kDa dextran (FD-4; Sigma-Aldrich Canada Ltd.) across the keratinocyte layer. Briefly, B11 cells were cultured on Transwell filters, and FD-4 ([…] in culture medium) was added in the apical compartment in the presence of the test composition under investigation. Fluorescence in the basolateral compartment was measured at 0, 4, 8, 24, and 48 h using a Synergy 2 microplate reader (BioTek Instrument, Winooski, Vt., USA).
(§2) Briefly, B11 cells were cultured on Transwell™ filters, and FD-4 (1 mg/mL in culture medium) was added to the apical compartment in the presence of the test compounds. The presence of FD-4 in the basolateral compartment was determined at 0, 2, 6, 24, and 48 h by measuring the fluorescence (RUF; excitation wavelength 495 nm; emission wavelength 525 nm) using a Synergy 2 microplate reader.

[4] = system: P. gingivalis collagenase; test: Proteolytic assay: collagen DQ degradation by P. gingivalis culture supernatant; assay type: biochemical, Porphyromonas gingivalis; conditions: Example 6, FIGS. 35, 38, 41; over 5 hours
Method: To determine the effects of formulations tested on the proteinase activity of P. gingivalis, a 48-h culture was centrifuged at 10 000×g for 10 min. […] The fluorescence corresponding to collagen degradation was monitored using a Synergy 2 microplate reader, with the excitation and emission wavelengths set at 495 nm and 525 nm, respectively. Test compounds or the fluorescent substrate alone were used as controls. For the proteolytic assay, the following ratio was used: 40% P. gingivalis supernatant+40% test compounds+20% DQ collagen. […]
To determine the effects of the Dual Zinc plus Arginine aqueous solution and dentifrice on the proteinase activity of P. gingivalis, a 48-h culture was centrifuged at 10 000×g for 10 min. Assay mixtures containing equal volumes of P. gingivalis culture supernatant, the fluorescent substrate collagen DQ™ (100 μg/mL; Molecular Probes, Eugene, Oreg., USA), and the Dual Zinc […] The fluorescence corresponding to collagen degradation was monitored using a Synergy 2 microplate reader, with the excitation and emission wavelengths set at 495 nm and 525 nm, respectively. Test compounds or the fluorescent substrate alone were used as controls. Leupeptin (1 μM) was used as a positive inhibitory control.

[5] = system: B11 gingival keratinocytes challenged with P. gingivalis; test: Paracellular permeability to FITC-dextran with P. gingivalis challenge; assay type: cell-based, human; conditions: P. gingivalis MOI=10^4; over 48 h; FIGS. 16, 19, 22
Method: as §1, §2

[6] = system: B11 immortalized human gingival keratinocyte cell line; test: Transepithelial electrical resistance (TER) of gingival keratinocyte barrier; assay type: cell-based; conditions: no challenge; dilutions 1/500, 1/1000, 1/2000 or 0.025-0.2%; multiple time points; FIGS. 6, 9, 12
Method: Tight junction integrity was assessed by determining the trans-epithelial electrical resistance (TER). B11 gingival keratinocytes were seeded onto Costar™ Transwell™ clear polyester membrane inserts (6.5-mm diameter; 0.4-μm pore size; Corning Co., Cambridge, Mass., USA) at 3×10^5 cells per insert. The basolateral and apical compartments were filled with 0.6 mL and 0.1 mL of complete K-SFM, respectively. Following a 72-h incubation, the conditioned medium was replaced with antibiotic-free K-SFM, and the cells were incubated for a further 16 h. The TER values were measured using an Ohm/voltmeter (EVOM2; World Precision Instruments, Sarasota, Fla., USA) at 0, 4, 8, 24, 48, and 72 h. Resistance values were calculated in Ohms (Ω)/cm 2 by multiplying the resistance values by the filter surface area. Results were expressed as percentage of the basal control values measured at time 0 h (100% values) for each condition.

SMILES | immunofluorescence of tight junction proteins (Occludin, Zonula Occludens-1) [1] | immunofluorescence of tight junction proteins with P. gingivalis [2] | paracellular permeability to FITC-dextran [3] | inhibition of P. gingivalis collagenase activity [4] | paracellular permeability to FITC-dextran with P. gingivalis [5] | TER measured as a percent of the initial value [6]
[O]=[Zn] [zinc oxide] | enhances barrier integrity | protects barrier integrity from the deleterious effects caused by the presence of P. gingivalis | decreased with the increase in concentration of zinc oxide | inhibits collagenase activity of P. gingivalis in a dose response manner | decreased with the increase in concentration of zinc oxide | increase in TER values with the increase in sample concentration
O=C([O-])CC(O)(CC(=O)[O-])C(=O)[O-].O=C([O-])CC(O)(CC(=O)[O-])C(=O)[O-].[Zn+2].[Zn+2].[Zn+2] [zinc citrate] | enhances barrier integrity | protects barrier integrity from the deleterious effects caused by the presence of P. gingivalis | decreased with the increase in concentration of zinc citrate | inhibits collagenase activity of P. gingivalis in a dose response manner | decreased with the increase in concentration of zinc citrate | increase in TER values with the increase in sample concentration
